Test results taken from patent US20250325675A1, “APTAMER, CONJUGATE, COMPOSITION, METHOD FOR PREPARING SAME, AND USE THEREOF” (priority 2022, published 2025).
{Cy5} = cyanine 5 fluorescent dye

System: 293T human renal epithelial cells
Experiment: High content imaging: entry of conjugates into 293T cells
Assay type: cell-based
Settings: 100 nM, 30 min 37°C, normal cells
Procedure: In this experiment, the entry of conjugate AP1 provided by the present disclosure and comparative conjugate comparative AP10 into different cells was observed by a PerkinElmer High Content Imaging system (Operatta).
U118MG glioma cells, SVGp12 normal astrocytes, T98G human brain glioma cells, U251 human glioma cells, A549 human non-small cell lung cancer cells, MCF-7 human breast cancer cells, and 293T human kidney epithelial cells were all purchased from the Shanghai Cell Bank of Chinese Academy of Sciences. […] The supernatant was aspirated and DPBS buffer (purchased from Thermo Fisher) was added to wash the plate 2 times (100 μL each time).
Conjugate AP1 prepared above and yeast tRNA were respectively formulated into conjugate solution 2A with DMEM medium, and the conjugate solution 2A comprised yeast tRNA at a final concentration of 100 μg/mL and conjugate AP1 at a final concentration of 100 nM. […]
Normalization was performed according to the mean fluorescence intensity of control group 2Y, that is, subtracting the mean fluorescence intensity of control group 2Y from the fluorescence intensity of test group 2X before performing imaging.

“CY5-CfUfGGAGUfUfCfAGACfGUfGUfUfGCfUfCfUfUfCfCfGAUfCfUfCf (CUGGAGUUCAGACGUGUUGCUCUUCCGAUCUC; 2'-fluoro at CU, RNA at AG, 5' {Cy5}, backbone not given here) [AP1]” was tested, and the “Cy5 fluorescence signal in cells” value was “nor the 293T human renal epithelial cells showed any fluorescence signal”.
